Reference: patent publication US11160797B2, “Pyridinone derivatives and their use as selective ALK-2 inhibitors” (NOVARTIS AG, priority 2017, dated 2021)
Where two headings read alike, the source gives them in different places.

Experiments:
[1] = molecular target: T1, wild-type ALK2 (aa172-499) (Homo sapiens (Human), UniProt Q04771); test: Caliper biochemical peptide phosphorylation assay, ALK2
[2] = molecular target: ALK2 FOP mutant (aa172-499 R206H) (Homo sapiens (Human), UniProt Q04771, R206H); test: Caliper biochemical peptide phosphorylation assay, ALK2 FOP
[3] = molecular target: ALK5 (aa162-503) (Homo sapiens (Human), UniProt P36897); test: Caliper biochemical peptide phosphorylation assay, ALK5; conditions: 15 uM ATP
Description: For all biochemical assays, human recombinant proteins were expressed in and purified from baculo virus transfected insect cells. The constructs comprised the GS-domain and kinase domain of wild-type ALK2 (aa172-499), ALK2 FOP mutant (aa172-499 R206H), ALK3 (aa198-525), ALK5 (aa162-503) and ALK6 (aa168-495).
A kinase selectivity panel which measures substrate peptide phosphorylation was set-up for wild-type ALK2 (aa172-499), ALK2 FOP mutant (aa172-499 R206H), ALK1 (aa166-493), ALK5 (aa162-503) and ALK6 (aa168-495). The technology used for the described assay is based on the separation and quantification of substrate and product in an electrical field. In the course of the kinase reaction the peptide substrate is phosphorylated by a kinase. […] Due to this difference in charge the phosphorylated und unphosphorylated peptides migrate with different velocities in an electrical field.
In the applied method, this separation takes place inside a chip that contains a complex capillary system for simultaneous analysis of 12 samples (“LabChip EZ Reader 12-sipper chip”, Caliper Technologies Corp., Mountain View, USA). In order to allow the detection and quantification of the peptides in the capillary system, the peptides carry a fluorescent label (fluorescein). With this label the peptides can be quantified by fluorescence intensity through the instruments laser and detection system (LC3000, Caliper Life Sciences).
The assays were performed in 384-well, low volume microtiter assay plates in a final reaction volume of 9 ul. Dose-response curves were generated by incubating 10 nM of each kinase together with 2 uM of the fluorescently labeled substrate peptide 5-Fluo-Ahx-[…]-T-[…]-amid (10 mM stock solution in DMSO) in 50 mM Hepes pH 7.5, 0.02% Tween 20, 0.02% BSA, 1 mM DTT, 10 uM Na3VO4, 10 mM ß-Glycerolphosphate, 1 mM MgCl2, 12 mM MnCl2 (ALK1 and ALK6 7 mM) and 15 uM ATP for 60 min at 30° C. in the presence or absence of compound diluted in DMSO.
Kinase reactions were terminated by adding 15 ul STOP buffer (100 mM HEPES pH 7.5, 5% DMSO, 0.1% Caliper coating reagent, 10 mM EDTA, and 0.015% Brij35.
Plates with terminated kinase reactions were transferred to the Caliper LC3000 workstation (Caliper Technologies Corp., Mountain View, USA) for reading. The relative amount of phosphorylated peptide r, was calculated using the heights of the substrate peak, s, and the product peak, p:r=p/(p+s).
IC50 values for a given antagonist correspond to the compound concentration needed to inhibit half of the maximum signal of the kinase reaction.

[4] = molecular target: T1, wild-type ALK2 (aa172-499); test: ADPGlo biochemical autophosphorylation assay, ALK2; conditions: 15 uM ATP
[5] = tested on: HuH7 cells, BMP response element (BRE) luciferase reporter, BMP6 stimulated; test: BMP signaling reporter gene assay; assay type: cell-based; conditions: Homo sapiens, Huh-7; BMP6 100 ng/ml; read-out: MSD HuH7 cell BMP reporter IC50
Description: A human liver hepatocellular carcinoma cell line (HuH7) stably transfected with a reporter plasmid consisting of the human BMP response element (BRE) from the Id1 promoter fused to a luciferase reporter gene was generated through lentiviral transduction.
Assays were performed in 384-well flat bottom polystyrene microtiter plates (cell culture treated) with sterile lids. The cells were starved through medium exchange in Blasticidine- and FCS-free medium 16 h before the assay. Prior to the assay, cells were detached from the stock flask using trypsin/EDTA and counted. A cell suspension in the same medium without Blasticidin and FCS was prepared. 2×10^4 cells in a total volume of 40 ul were added to each well of a plate already containing serial dilutions of each compound in DMSO (final DMSO concentration 0.5%). […] Assay plates are incubated for another 5 hours at 37° C., 5% CO2 before luciferase levels are measured.
The amount of expressed luciferase is quantified using the Steady-Glo® Luciferase Assay System (Promega #E2520).

[6] = molecular target: ALK1 (aa166-493) (Homo sapiens (Human), UniProt P37023); test: Caliper biochemical peptide phosphorylation assay, ALK1; conditions: 15 uM ATP
[7] = Caliper peptide phosphorylation, 15 uM ATP, read-out: ALK2 IC50
[8] = Caliper peptide phosphorylation, R206H, 15 uM ATP, read-out: ALK2 FOP EPK IC50

Sequence of ALK1 (aa166-493) (P37023 166-493): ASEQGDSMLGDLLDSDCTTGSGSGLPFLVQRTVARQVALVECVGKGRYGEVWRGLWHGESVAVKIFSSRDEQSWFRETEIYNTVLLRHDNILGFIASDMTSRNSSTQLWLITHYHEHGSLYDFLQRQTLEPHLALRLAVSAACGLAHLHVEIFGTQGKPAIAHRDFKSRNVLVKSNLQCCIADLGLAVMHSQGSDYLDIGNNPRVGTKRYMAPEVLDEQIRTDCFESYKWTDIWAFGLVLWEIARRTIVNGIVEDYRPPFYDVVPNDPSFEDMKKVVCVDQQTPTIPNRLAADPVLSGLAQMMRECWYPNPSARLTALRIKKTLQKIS
Sequence of ALK2 FOP mutant (aa172-499 R206H) (Q04771 172-499 R206H): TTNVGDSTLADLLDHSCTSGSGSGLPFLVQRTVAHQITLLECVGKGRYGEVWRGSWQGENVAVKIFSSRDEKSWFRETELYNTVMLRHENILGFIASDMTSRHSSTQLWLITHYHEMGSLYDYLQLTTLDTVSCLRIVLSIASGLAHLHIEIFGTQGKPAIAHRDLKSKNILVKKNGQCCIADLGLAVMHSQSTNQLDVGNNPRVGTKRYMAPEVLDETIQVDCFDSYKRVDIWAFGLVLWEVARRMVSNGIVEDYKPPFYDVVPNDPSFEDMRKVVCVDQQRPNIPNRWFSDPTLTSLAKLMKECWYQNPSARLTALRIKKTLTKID
T1 sequence (Q04771 172-499): as the sequence (Q04771 172-499 R206H) above, with H35R counted along it
Sequence of ALK5 (aa162-503) (P36897 162-503): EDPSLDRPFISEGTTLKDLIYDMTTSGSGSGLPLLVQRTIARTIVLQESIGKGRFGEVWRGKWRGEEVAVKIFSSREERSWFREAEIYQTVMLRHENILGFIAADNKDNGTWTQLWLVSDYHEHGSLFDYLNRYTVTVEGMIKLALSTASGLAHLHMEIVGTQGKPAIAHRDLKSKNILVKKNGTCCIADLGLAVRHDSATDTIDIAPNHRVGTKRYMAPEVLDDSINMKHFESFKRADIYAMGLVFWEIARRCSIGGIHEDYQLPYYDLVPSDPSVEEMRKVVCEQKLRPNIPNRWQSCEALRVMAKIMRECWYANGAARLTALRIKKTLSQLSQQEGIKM

SMILES	IC50 ([1]; read-out: IC50 in the ALK2 assay)	IC50 ([2]; read-out: IC50 in the ALK2-FOP assay)	IC50 [3]	IC50 [4]	IC50 [1, 7]	IC50 [5]	IC50 [2, 8]	IC50 [6]
CC(C)n1cc(-c2cncc(-c3cnc4c(c3)C(C)(C)C(=O)N4C)c2)ccc1=O [5-(1′-isopropyl-6′-oxo-1′,6′-dihydro-[3,3′-bipyridin]-5-yl)-1,3,3-trimethyl-1H-pyrrolo[2,3-b]pyridin-2(3H)-one]	> 1000 nM	> 1000 nM	–	–	–	–	–	–
Cc1cc(-c2cncc(-c3ccc4c(c3)CC(=O)N4C)c2)cn(C(C)C)c1=O [Example 3, 5-(5-(1-Isopropyl-5-methyl-6-oxo-1,6-dihydropyridin-3-yl)pyridin-3-yl)-1-methylindolin-2-one]	–	–	660 nM	97 nM	90 nM	50 nM	70 nM	–
CCC(CC)n1cc(-c2cncc(-c3ccc4c(c3)CC(=O)N4C)c2)ccc1=O [Example 4, 1-methyl-5-(6′-oxo-1′-(pentan-3-yl)-1′,6′-dihydro-[3,3′-bipyridin]-5-yl)indolin-2-one]	–	–	> 10000 nM	1300 nM	600 nM	–	650 nM	–
CCc1cc(-c2cncc(-c3ccc4c(c3)CC(=O)N4C)c2)cn(C(C)C)c1=O [Example 5, 5-(5′-Ethyl-1′-isopropyl-6′-oxo-1′,6′-dihydro-[3,3′-bipyridin]-5-yl)-1-methylindolin-2-one]	–	–	720 nM	140 nM	160 nM	60 nM	130 nM	900 nM
CCC(C)n1cc(-c2cncc(-c3ccc4c(c3)CC(=O)N4C)c2)ccc1=O (centres unmarked) [Example 7, 5-(1′-(sec-butyl)-6′-oxo-1′,6′-dihydro-[3,3′-bipyridin]-5-yl)-1-methylindolin-2-one]	–	–	4400 nM	230 nM	190 nM	–	170 nM	1200 nM
CCn1cc(-c2cncc(-c3ccc4c(c3)CC(=O)N4C)c2)ccc1=O [Example 9, 5-(1′-ethyl-6′-oxo-1′,6′-dihydro-[3,3′-bipyridin]-5-yl)-1-methylindolin-2-one]	–	–	> 10000 nM	490 nM	460 nM	540 nM	400 nM	–
CN1C(=O)Cc2cc(-c3cncc(-c4ccc(=O)n(C5CC5)c4)c3)ccc21 [Example 10, 5-(1′-cyclopropyl-6′-oxo-1′,6′-dihydro-[3,3′-bipyridin]-5-yl)-1-methylindolin-2-one]	–	–	> 10000 nM	710 nM	410 nM	730 nM	390 nM	2900 nM
CC(C)Cn1cc(-c2cncc(-c3ccc4c(c3)CC(=O)N4C)c2)ccc1=O [Example 14, 5-(1′-isobutyl-6′-oxo-1′,6′-dihydro-[3,3′-bipyridin]-5-yl)-1-methylindolin-2-one]	–	–	9100 nM	740 nM	480 nM	680 nM	510 nM	4600 nM
CCN1C(=O)Cc2cc(-c3cncc(-c4ccc(=O)n(C(C)C)c4)c3)ccc21 [Example 20, 1-Ethyl-5-(1′-isopropyl-6′-oxo-1′,6′-dihydro-[3,3′-bipyridin]-5-yl)indolin-2-one]	–	–	2500 nM	110 nM	90 nM	140 nM	90 nM	–
CC(C)n1cc(-c2cncc(-c3ccc4c(c3)N(C)C(=O)C4)c2)ccc1=O [Example 26, 6-(1′-Isopropyl-6′-oxo-1′,6′-dihydro-[3,3′-bipyridin]-5-yl)-1-methylindolin-2-one]	–	–	> 10000 nM	710 nM	470 nM	–	590 nM	–
COCCN1C(=O)Cc2cc(-c3cncc(-c4ccc(=O)n(C(C)C)c4)c3)cnc21 [Example 27, 5-(1′-Isopropyl-6′-oxo-1′,6′-dihydro-[3,3′-bipyridin]-5-yl)-1-(2-methoxyethyl)-1H-pyrrolo[2,3-b]pyridin-2(3H)-one]	–	–	> 10000 nM	1700 nM	880 nM	–	1200 nM	> 10000 nM
CC(C)n1cc(-c2cncc(-c3ccc4c(c3)CCC(=O)N4C)c2)ccc1=O [Example 28, 6-(1′-Isopropyl-6′-oxo-1′,6′-dihydro-[3,3′-bipyridin]-5-yl)-1-methyl-3,4-dihydroquinolin-2(1H)-one]	–	–	580 nM	31 nM	30 nM	–	20 nM	–
COCCN1C(=O)Cc2cc(-c3cncc(-c4ccc(=O)n(C(C)C)c4)c3)ccc21 [Example 29, 5-(1′-Isopropyl-6′-oxo-1′,6′-dihydro-[3,3′-bipyridin]-5-yl)-1-(2-methoxyethyl)indolin-2-one]	–	–	6800 nM	140 nM	130 nM	–	150 nM	1600 nM
COCCCN1C(=O)Cc2cc(-c3cncc(-c4ccc(=O)n(C(C)C)c4)c3)ccc21 [Example 30, 5-(1′-isopropyl-6′-oxo-1′,6′-dihydro-[3,3′-bipyridin]-5-yl)-1-(3-methoxypropyl)indolin-2-one]	–	–	6000 nM	–	–	–	–	1500 nM
CC(C)n1cc(-c2cncc(-c3cc4c(cc3F)N(C)C(=O)C4)c2)ccc1=O [Example 31]	–	–	5300 nM	120 nM	100 nM	130 nM	90 nM	770 nM
CC(C)n1cc(-c2cncc(-c3ccc4c(c3)NC(=O)C4(C)C)c2)ccc1=O [Example 32, 6-(1′-isopropyl-6′-oxo-1′,6′-dihydro-[3,3′-bipyridin]-5-yl)-3,3-dimethylindolin-2-one]	–	–	690 nM	–	–	–	–	280 nM
CC1C(=O)Nc2cc(-c3cncc(-c4ccc(=O)n(C(C)C)c4)c3)ccc21 (centres unmarked) [Example 33, 6-(1′-isopropyl-6′-oxo-1′,6′-dihydro-[3,3′-bipyridin]-5-yl)-3-methylindolin-2-one]	–	–	2700 nM	180 nM	170 nM	330 nM	150 nM	760 nM
CC(C)n1cc(-c2cncc(-c3ccc4c(c3)CC(=O)N4)c2)ccc1=O [Example 34, 5-(5-(1-Isopropyl-6-oxo-1,6-dihydropyridin-3-yl)pyridin-3-yl)indolin-2-one]	–	–	3400 nM	300 nM	180 nM	190 nM	170 nM	1100 nM
Cc1cc(-c2cncc(-c3ccc(=O)n(C(C)C)c3)c2)cc2c1N(C)C(=O)C2 [Example 35, 5-(1′-isopropyl-6′-oxo-1′,6′-dihydro-[3,3′-bipyridin]-5-yl)-1,7-dimethylindolin-2-one]	–	–	5700 nM	110 nM	100 nM	140 nM	91 nM	630 nM
CC(C)n1cc(-c2cncc(-c3ccc4c(c3)CCCC(=O)N4C)c2)ccc1=O [Example 39, 7-(1′-isopropyl-6′-oxo-1′,6′-dihydro-[3,3′-bipyridin]-5-yl)-1-methyl-4,5-dihydro-1H-benzo[b]azepin-2(3H)-one]	–	–	1400 nM	89 nM	70 nM	110 nM	60 nM	350 nM
CC(C)n1cc(-c2cncc(-c3ccc4c(c3)CC(=O)N4C)c2F)ccc1=O [Example 52, 5-(4-fluoro-1′-isopropyl-6′-oxo-1′,6′-dihydro-[3,3′-bipyridin]-5-yl)-1-methylindolin-2-one]	–	–	> 10000 nM	690 nM	380 nM	–	380 nM	3600 nM
